Measured values: PubChem BioAssay (NCI)
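The compound was tested at five concentrations on cells cultured in 96-well plates, with a 48-hour exposure period. Definition used: TGI = concentration required for complete inhibition of growth.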

How the values were obtained:
Experiment in all cases: DTP human tumour cell line panel, 48 h
[1] = system: 786-0 renal
[2] = system: A498 renal
[3] = system: A549 NSCLC
[4] = system: ACHN renal
[5] = system: BT-549 breast
[6] = system: CAKI-1 renal
[7] = system: CCRF-CEM leukemia
[8] = system: COLO 205 colon
[9] = system: DU-145 prostate
[10] = system: EKVX NSCLC
[11] = system: HCC-2998 colon
[12] = system: HCT-116 colon
[13] = system: HCT-15 colon
[14] = system: HL-60(TB) leukemia
[15] = system: HOP-62 NSCLC
[16] = system: HOP-92 NSCLC
[17] = system: HS 578T breast
[18] = system: HT29 colon
[19] = system: IGROV1 ovarian
[20] = system: K-562 leukemia
[21] = system: KM12 colon
[22] = system: LOX IMVI melanoma
[23] = system: M14 melanoma
[24] = system: MALME-3M melanoma
[25] = system: MCF7 breast
[26] = system: MDA-MB-231 breast
[27] = system: MDA-MB-435
[28] = system: MDA-N
[29] = system: MOLT-4 leukemia
[30] = system: NCI-H226 lung
[31] = system: NCI-H23 lung
[32] = system: NCI-H460 lung
[33] = system: NCI-H522 lung
[34] = system: OVCAR-3 ovarian
[35] = system: OVCAR-4 ovarian
[36] = system: OVCAR-5 ovarian
[37] = system: PC-3 prostate
[38] = system: RPMI-8226 leukemia
[39] = system: RXF 393 renal
[40] = system: SF-268 CNS
[41] = system: SF-295 CNS
[42] = system: SF-539 CNS
[43] = system: SK-MEL-2 melanoma
[44] = system: SK-MEL-28 melanoma
[45] = system: SK-MEL-5 melanoma
[46] = system: SK-OV-3 ovarian
[47] = system: SN12C renal
[48] = system: SNB-19 CNS
[49] = system: SR leukemia
[50] = system: SW-620 colon
[51] = system: T-47D breast
[52] = system: TK-10 renal
[53] = system: U251 CNS
[54] = system: UACC-257 melanoma
[55] = system: UACC-62 melanoma
[56] = system: UO-31 renal
[57] = system: NCI/ADR-RES ovarian
[58] = system: OVCAR-8 ovarian

C=C1C(=O)O[C@@H]2O[C@@]3(C)CC[C@H]4[C@H](C)CC[C@@H]1[C@@]24O3
TGI [1]: 41.3 µM | TGI [2]: > 100 µM | TGI [3]: > 100 µM | TGI [4]: 26.9 µM | TGI [5]: 22.2 µM | TGI [6]: 46.4 µM | TGI [7]: 11.8 µM | TGI [8]: 34.3 µM | TGI [9]: 27.5 µM | TGI [10]: 48.7 µM | TGI [11]: 41 µM | TGI [12]: 32.2 µM | TGI [13]: 27.6 µM | TGI [14]: > 100 µM | TGI [15]: > 100 µM | TGI [16]: 12.4 µM | TGI [17]: > 100 µM | TGI [18]: 83.5 µM | TGI [19]: 28.3 µM | TGI [20]: > 100 µM | TGI [21]: 21.3 µM | TGI [22]: 40.1 µM | TGI [23]: > 100 µM | TGI [24]: 86.4 µM | TGI [25]: 25.3 µM | TGI [26]: 81.8 µM | TGI [27]: > 100 µM | TGI [28]: > 100 µM | TGI [29]: 38.9 µM | TGI [30]: > 100 µM | TGI [31]: 40.1 µM | TGI [32]: 65.9 µM | TGI [33]: 62.8 µM | TGI [34]: 93.5 µM | TGI [35]: 36.3 µM | TGI [36]: > 100 µM | TGI [37]: 52.7 µM | TGI [38]: 36.8 µM | TGI [39]: 54.7 µM | TGI [40]: > 100 µM | TGI [41]: > 100 µM | TGI [42]: 32.2 µM | TGI [43]: 46.9 µM | TGI [44]: > 100 µM | TGI [45]: > 100 µM | TGI [46]: > 100 µM | TGI [47]: 59.2 µM | TGI [48]: > 100 µM | TGI [49]: 47 µM | TGI [50]: > 100 µM | TGI [51]: 38.1 µM | TGI [52]: 32.7 µM | TGI [53]: > 100 µM | TGI [54]: 47.9 µM | TGI [55]: 29.7 µM | TGI [56]: 63 µM

O=C1C=CC(=O)c2c1ccc1c3ccccc3n(CCCCCCCCn3c4ccccc4c4ccc5c(c43)C(=O)C=CC5=O)c21
TGI [1]: > 100 µM | TGI [2]: > 100 µM | TGI [3]: > 100 µM | TGI [4]: > 100 µM | TGI [5]: > 100 µM | TGI [6]: > 100 µM | TGI [7]: > 100 µM | TGI [8]: > 100 µM | TGI [9]: > 100 µM | TGI [10]: > 100 µM | TGI [11]: > 100 µM | TGI [12]: > 100 µM | TGI [13]: > 100 µM | TGI [14]: > 100 µM | TGI [15]: > 100 µM | TGI [17]: > 100 µM | TGI [18]: > 100 µM | TGI [19]: > 100 µM | TGI [20]: > 100 µM | TGI [21]: > 100 µM | TGI [22]: > 100 µM | TGI [23]: > 100 µM | TGI [24]: > 100 µM | TGI [25]: > 100 µM | TGI [26]: > 100 µM | TGI [27]: > 100 µM | TGI [28]: > 100 µM | TGI [29]: > 100 µM | TGI [30]: > 100 µM | TGI [31]: > 100 µM | TGI [32]: > 100 µM | TGI [33]: > 100 µM | TGI [57]: > 100 µM | TGI [34]: > 100 µM | TGI [35]: > 100 µM | TGI [36]: > 100 µM | TGI [58]: > 100 µM | TGI [37]: > 100 µM | TGI [38]: > 100 µM | TGI [39]: > 100 µM | TGI [40]: > 100 µM | TGI [41]: > 100 µM | TGI [42]: > 100 µM | TGI [43]: > 100 µM | TGI [44]: > 100 µM | TGI [45]: > 100 µM | TGI [46]: > 100 µM | TGI [47]: > 100 µM | TGI [48]: > 100 µM | TGI [50]: > 100 µM | TGI [51]: > 100 µM | TGI [52]: > 100 µM | TGI [53]: > 100 µM | TGI [54]: > 100 µM | TGI [55]: > 100 µM
